Biological target: T1, human PTP-1B (Homo sapiens, UniProt P18031)
T1 construct: The fusion protein, which lacks the carboxyl terminus 35 amino acid residues of PTP-1B; made in house; host or cells: Escherichia coli (pGEX system)
T1 sequence (P18031 1-400 limits assumed): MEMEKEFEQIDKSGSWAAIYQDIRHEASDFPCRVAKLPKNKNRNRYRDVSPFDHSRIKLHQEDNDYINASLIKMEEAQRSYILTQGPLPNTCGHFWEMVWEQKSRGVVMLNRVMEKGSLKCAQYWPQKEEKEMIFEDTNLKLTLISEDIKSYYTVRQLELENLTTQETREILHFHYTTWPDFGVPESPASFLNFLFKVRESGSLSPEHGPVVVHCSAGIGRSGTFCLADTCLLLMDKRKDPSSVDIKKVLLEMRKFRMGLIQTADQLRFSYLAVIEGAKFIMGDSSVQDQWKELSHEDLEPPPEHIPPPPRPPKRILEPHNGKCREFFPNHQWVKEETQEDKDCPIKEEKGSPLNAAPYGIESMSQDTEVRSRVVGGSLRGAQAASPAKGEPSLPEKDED
Test: Assay for PTP-1B phosphatase activity (malachite green, phosphorylated insulin receptor peptide)
Format: biochemical
Conditions: truncated human PTP-1B GST fusion protein, phosphorylated kinase domain of insulin receptor-1 as substrate, absorbance at 650 nm, read-out: IC50 of inhibition of PTP-1B phosphatase activity
Procedure: PTP-1B phosphatase activity was measured as its ability to dephosphorylate a phosphorylated insulin receptor. In particular, a phosphorylated peptide derived from insulin receptor was used for the assay. The dephosphorylation reaction was monitored using a malachite green assay (Lanzetta et al., Anal Biochem. 1979, 100: 95-7), which measures the release of inorganic phosphate from the activated insulin receptor or the phosphorylated peptide derived from insulin receptor. A PTP-1B inhibitor decreases the yield of inorganic phosphate when it is added to the assay.
A substantially purified, soluble, truncated human PTP-1B GST fusion protein was used as the source of PTP-1B enzyme. […]
PTP-1B GST fusion protein (10 ng in 48 μl of assay buffer) was mixed with the phosphorylated kinase domain of insulin receptor-1 (70 μM in 201 μl of assay buffer) and the test compound (at desired concentration in 2 μl DMSO). […] After additional 30 minutes incubation at room temperature, the amount of inorganic phosphate released from the phosphorylated kinase domain of insulin receptor-1 in the reaction mixture was measured by the absorbance at 650 nm. […]

IC50: 910 nM
Compound: Cc1ccc(CC/N=C2\N/C(=N\CCc3ccc(C)cc3)c3cnccc32)cc1 [Formula II, 1,3-Bis-(2-p-tolyl-ethylimino)-2,3-dihydro-1H-pyrrolo[3,4-c]pyridine]
